System: platelets
Experiment: measurement of platelet function using the thrombus monitoring system C (microchip 4, citrated whole blood mixed with ADP under flow)
Assay type: cell-based
Conditions: for time after the beginning of the measurement at which an obvious platelet aggregate was formed in the thrombus formation chamber: collagen/PT reagent coated chamber
Experimental: The stirring section 413 was in the shape of a circle having a diameter of […] and narrowing in fan-like fashion in the direction toward the downstream, and its depth was 1.2 mm. The stirring bar 417 was a stirring bar in the shape of a cylinder having a length of 2 mm and a diameter of 1 mm, whose surface was coated with nickel.
As the thrombus-inducing agent, 24 μL of a mixture of collagen type I (Nitta Gelatin Inc.) and PT reagent (Sysmex Corporation) was applied in a square shape sizing 1 cm×1 cm, and dried under reduced pressure at −0.08 MPa for 3 hours. The coating with the thrombus-inducing material was carried out such that the merged channel 403 was not passing the center of the square area on which the thrombus-inducing material was applied, that is, such that the merged channel 403 was passing 2.5 mm away from an edge of the square, when the substrate 400 and the substrate 410 were bonded to each other. As the collagen type I, one having a concentration of 3 mg/ml was used. As the PT reagent, one prepared by dissolving 1 vial of PT reagent manufactured by Sysmex Corporation in 2 ml of purified water and dialyzing the resulting solution against purified water overnight, followed by mixing the resultant at a ratio of 1:1 was used.
To the blood reservoir 433, the first pump 420 was connected, and the first connection nozzle 435 and the second connection nozzle 436 were connected to the second pump 421 and the third pump 422, respectively.
Mineral oil was filled in the first pump 420; purified water and 1 μM or 2 μM ADP solution were filled in the second pump 421; and 0.5 M EDTA (pH 10) solution was filled in the third pump 422.
Blood prepared by mixing the blood immediately after collection with 3.2% sodium citrate solution at a volume ratio between the blood and the sodium citrate solution being 9:1 was filled in the blood reservoir 433.
The programs executed for the first pump 420, second pump 421 and the third pump 422 were the same with those in Example 7 (Table 3). […]

SMILES: Nc1ncnc2c1ncn2[C@@H]1O[C@H](COP(=O)(O)OP(=O)(O)O)[C@@H](O)[C@H]1O [ADP, adenosine diphosphate]
- time after the beginning of the measurement at which an obvious platelet aggregate was formed in the thrombus formation chamber (1 μM ADP solution in second pump): 15 min
- increase in pressure due to platelet aggregate (pressure sensor) (1 μM or 2 μM ADP in second pump): no increase in pressure occurred
- time after the beginning of the measurement at which an obvious platelet aggregate was formed in the thrombus formation chamber (2 μM ADP solution in second pump): 10 min

Reference: patent US8425840B2, “Microchip and blood monitoring device” (Fujimori Kogyo Co., Ltd., priority 2007, dated 2013)
